The values that follow come from ChEMBL document CHEMBL3045980, “Chemistry of insect antifeedants from Azadirachta indica (part 11): Characterisation and structure activity relationships of some novel rearranged azadirachtins” (1991).

For assay [1], the system named is Spodoptera littoralis. Kind of assay: Antifeedant activity against final stadium larval stage of Spodoptera littoralis in compound pretreated glass fibre disks assessed as mass of disks eaten at 1 ppm by choice bioassay. The assay is classed as functional.
The test system of assay [2] is Spodoptera littoralis. Put plainly: Antifeedant activity against final stadium larval stage of Spodoptera littoralis in compound pretreated glass fibre disks assessed as mass of disks eaten at 10 ppm by choice bioassay. The assay is classed as functional.

In the case of `C/C=C(\C)C(=O)O[C@H]1C[C@@H](OC(C)=O)[C@@]2(C(=O)OC)CO[C@H]3[C@H]4O[C@]5(C)[C@H](C6=CCOC6=O)C[C@H](O)[C@]5(O)[C@@]4(C)[C@H]4[C@]1(CO[C@]4(O)C(=O)OC)[C@@H]32`, the AFI in assay [1] turned out to be 41%; in assay [2], 64%.

`C/C=C(\C)C(=O)O[C@H]1C[C@@H](O)[C@@]23CO[C@@H]4[C@@H](O)[C@]5(C)[C@@H]([C@]1(COC2=O)[C@@H]43)[C@](O)(C(=O)OC)O[C@@]51[C@H]2C[C@H]3[C@]4(C=CO[C@H]4O2)O[C@]31C`: the AFI was determined as 22% in assay [1] and 16% in assay [2].

Turning to `C/C=C(\C)C(=O)O[C@H]1C[C@@H](OC(C)=O)[C@@]2(C(=O)OC)CO[C@H]3[C@@H](O)[C@@](C)([C@]45O[C@@]4(C)[C@H]4C[C@@H]5O[C@@H]5OCC[C@@]54O)[C@@H]4[C@@](OC)(C(=O)OC)OC[C@@]14[C@@H]32`, the AFI in assay [1] and in assay [2] was 100% in each case.

As to `CCC(C)C(=O)O[C@H]1C[C@@H](OC(C)=O)[C@@]2(C(=O)OC)CO[C@H]3[C@@H](O)[C@@](C)([C@]45O[C@@]4(C)[C@H]4C[C@@H]5O[C@@H]5OCC[C@@]54O)[C@@H]4[C@@](OC)(C(=O)OC)OC[C@@]14[C@@H]32` (some centres undefined), the AFI in assay [1] is recorded as 98%; in assay [2] it was 100%.

`C/C=C(\C)C(=O)O[C@H]1C[C@@H](OC(C)=O)[C@@]2(C(=O)OC)CO[C@H]3C(=O)[C@@](C)([C@]45O[C@@]4(C)[C@H]4C[C@@H]5O[C@@H]5OCC[C@@]54O)[C@@H]4[C@@](OC)(C(=O)OC)OC[C@@]14[C@@H]32`: the AFI in assay [1] is given as 26%; in assay [2] it was 100%.

On to `C/C=C(\C)C(=O)O[C@H]1C[C@@H](OC(C)=O)[C@@]2(C(=O)OC)CO[C@@H]3[C@@H]2[C@]12CO[C@](OC)(C(=O)OC)[C@H]2[C@](C)([C@]12O[C@@]1(C)[C@H]1C[C@@H]2O[C@@H]2OCC[C@@]21O)[C@H]3O`, for which the AFI in assay [1] is 35%; in assay [2], 46%.

Regarding `C/C=C(\C)C(=O)O[C@H]1C[C@@H](OC(C)=O)[C@@]2(C(=O)OC)CO[C@H]3C(=O)[C@@](C)([C@]45O[C@@]4(C)[C@H]4C[C@@H]5OC(=O)OCCC4=O)[C@@H]4[C@@](OC)(C(=O)OC)OC[C@@]14[C@@H]32`, the AFI in assay [1] is on record as 61%; in assay [2], 63%.

Consider `C/C=C(\C)C(=O)O[C@H]1C[C@@H](OC(C)=O)[C@@]2(C(=O)OC)CO[C@H]3[C@@H](O)[C@@](C)([C@]45O[C@@]4(C)[C@H]4C[C@@H]5O[C@@H]5OCC[C@@]54OC)[C@@H]4[C@@](OC)(C(=O)OC)OC[C@@]14[C@@H]32`, for which the results for the AFI in assay [1] and in assay [2] were 66% and 95%, respectively.

`C/C=C(\C)C(=O)O[C@H]1C[C@@H](OC(C)=O)[C@@]2(C(=O)OC)CO[C@H]3C(=O)[C@@](C)([C@]45O[C@@]4(C)[C@H]4C[C@@H]5O[C@@H]5OCC[C@@]54OC)[C@@H]4[C@@](OC)(C(=O)OC)OC[C@@]14[C@@H]32`: the AFI in assay [1] is listed as 29%; in assay [2], 100%.

With `C/C=C(\C)C(=O)O[C@H]1C[C@@H](OC(C)=O)[C@@]2(C(=O)OC)CO[C@@H]3[C@@H]2[C@]12CO[C@](OC)(C(=O)OC)[C@H]2[C@@]1(C)[C@@]32O[C@H]3C[C@@H]([C@@]4(OC)CCO[C@@H]4OC)[C@@](C)(O2)[C@]31O`, the AFI in assay [1] is 33%; in assay [2] it was 31%.

As for `C/C=C(\C)C(=O)O[C@H]1C[C@@H](OC(C)=O)[C@@]2(C(=O)OC)CO[C@H]3C(=O)[C@@](C)([C@]45O[C@@]4(C)[C@H]4C[C@@H]5O[C@@H]5OC=C[C@@]54O)[C@H]4[C@]1(CO[C@]4(O)C(=O)OC)[C@@H]32` [7-KETOAZADIRACHTIN], the AFI in assay [1] was determined as 21%; in assay [2] it was 23%.

Regarding `C/C=C(\C)C(=O)O[C@H]1C[C@@H](OC(C)=O)[C@@]2(C(=O)OC)CO[C@H]3[C@@H](O)[C@@](C)([C@]45O[C@@]4(C)[C@@H]4C[C@H]5O[C@@H]5OC=C[C@@]54O)[C@H]4[C@]1(CO[C@]4(O)C(=O)OC)[C@@H]32` [AZADIRACHTIN A], the AFI in assay [1] came to 99%; in assay [2], 100%.
